Columns and labels:
Assay type in all cases: cell-based
A549 cells [1] = assay: Hoechst 33342/PI dual staining, morphological observation of apoptosis; conditions: A549, 48 h, 8 μM (Figure 1 legend; method says 4 μM)
Description: The morphological observation of apoptosis was performed by Hoechst 33342 and propidium iodide (PI) dual staining according to the manufacturer’s instructions. A549 cells (2 × 10^4 cells per well) seeded into 24-well plates (JET, Guangzhou, China) were incubated with DMEM containing 4 μM of β-carbolines (4B, 6i, 4D, and 6u) for 48 h at 37 °C and 5% CO2. Then, the cells were stained by Hoechst 33342 and PI at 37 °C for 30 min in dark conditions. Finally, cells were observed and photographed with a fluorescence microscope (LeicaDM6B, Leica, Nussloch, Germany).
Figure 1 Morphological observation was performed by Hoechst 33342/propidium iodide (PI) dual staining. A549 cells were treated with 4B, 6i, 4D, and 6u at 8 μM for 48 h, and then stained with Hoechst 33342 and PI at 37 °C in dark conditions. The stained cells were observed under a fluorescence microscope (Leica DM6B, Leica, Nussloch, Germany). Hoechst 33342 was used to stain the living and apoptotic nuclei, and emitted blue fluorescence (upper). PI was used to stain the dead nuclei and emitted red fluorescence (lower).

[2] = system: Hela (cervical carcinoma) cell line; assay: MTT cytotoxicity assay, Hela; conditions: Homo sapiens, 48 h, mean of three independent experiments, read-out: IC50 (μM) Mean ± SD, Hela
Description: (§1) All cell lines (A549, SGC-7901, Hela, SMMC-7721, and MCF-7) were purchased from the American Type Culture Collection (Manassas, VA, USA), and were cultured in Dulbecco’s modified Eagle’s medium (DMEM, HycloneLaboratories Inc., Logan, Utah, USA) supplemented with 10% fetal bovine serum (FBS, Gibco&Invitrogen, Carlsbad, CA, USA) at 37 °C and 5% CO2.
(§2) The cytotoxic activities of β-carboline-3-carboxylic acid derivatives were investigated by the MTT method, as previously described. Cells (1 × 10^4 cells per well) seeded into 96-well plates (JET, Guangzhou, China) were incubated with DMEM containing various concentrations (2.5, 5, 10, 20, 40, and 80 μM) of β-carbolines (4A, 4B, 4C, 4D, 6a-6f, 6g-6l, 6m-6r, and 6s-6x) for 48 h at 37 °C and 5% CO2. Then, 10 µL of 5 mg/mL MTT reagent dissolved in PBS (Phosphate buffered saline) was added per well, and plates were incubated at 37 °C for 4 h. The medium was carefully removed and 100 µL dimethyl sulfoxide (DMSO) was added to dissolve the formazan crystals. The absorbance was measured at 490 nm with a microplate reader (ThermoFisher Scientific Inc., Waltham, MA, USA). The β-carbolines were dissolved in DMSO as stock solutions (10 mM) at −20 °C, and diluted in the final experimental solution using DMEM before use. A549 (lung carcinoma), SGC-7901 (gastric carcinoma), Hela (cervical carcinoma), SMMC-7721 (liver carcinoma), and MCF-7 (breast carcinoma) cell lines were used for the antitumor activity screening. The IC50 values were the mean values of three independent experiments.

[3] = system: SGC-7901 (gastric carcinoma) cell line; assay: MTT cytotoxicity assay, SGC-7901; conditions: Homo sapiens, 48 h, mean of three independent experiments, read-out: IC50 (μM) Mean ± SD, SGC-7901
Description: as §1, §2

A549 cells [4] = assay: Cell apoptosis assay, Annexin V-FITC/PI dual staining, flow cytometry; conditions: 48 h; for Percentage of Cell Apoptosis (%) Normal Living Cell: lower left quadrant in Figure 3; for Percentage of Cell Apoptosis (%) Early Apoptosis: lower right quadrant in Figure 3
Description: The cell apoptosis was evaluated using Annexin V-FITC/PI dual staining (Beyotime, China). A549 cells (1 × 10^6 cells per well) seeded into 6-well plates (JET, Guangzhou, China) were incubated with DMEM containing various concentrations (2, 4, and 8 μM) of β-carbolines (4B, 6i, 4D, and 6u) for 48 h at 37 °C and 5% CO2. The cells in the supernatant and adherent were collected and washed with PBS, and then the cells were stained with Annexin V-FITC and PI for 20 min at r.t. The samples were analyzed using flow cytometry (Becton Dickinson, San Jose, CA, USA).
Figure 3 The cell apoptosis was detected by flow cytometry using Annexin V-FITC/PI dual staining. A549 cells were treated with 4B, 6i, 4D, and 6u at 2, 4, and 8 μM for 48 h, and then stained with Annexin V-FITC and PI for 15 min at 37 °C. The proportions of the living cells, the early apoptosis cells, and the late apoptotic cells were analyzed by FCS Express 5.0. TEXT PRINTED IN THE PICTURE: 4B: 9.00% (2 μM); 11.89% (2 μM); 75.93% (2 μM); 3.18% (2 μM); 8.92% (4 μM); 27.14% (4 μM); 48.59% (4 μM); 15.35% (4 μM); 3.89% (8 μM); 65.76% (8 μM); 21.95% (8 μM); 8.40% (8 μM) | 6i: 0.77% (2 μM); 20.26% (2 μM); 72.12% (2 μM); 6.85% (2 μM); 9.33% (4 μM); 33.08% (4 μM); 44.94% (4 μM); 12.65% (4 μM); 23.51% (8 μM); 59.73% (8 μM); 12.52% (8 μM); 4.24% (8 μM) | Control: 0.36%; 7.08%; 88.34%; 4.22% | 4D: 2.62% (2 μM); 16.16% (2 μM); 73.94% (2 μM); 7.27% (2 μM); 10.30% (4 μM); 34.96% (4 μM); 47.93% (4 μM); 6.80% (4 μM); 22.79% (8 μM); 54.30% (8 μM); 17.63% (8 μM); 5.28% (8 μM) | 6u: 0.17% (2 μM); 21.64% (2 μM); 66.05% (2 μM); 12.14% (2 μM); 6.92% (4 μM); 54.01% (4 μM); 32.53% (4 μM); 6.54% (4 μM); 2.79% (8 μM); 80.73% (8 μM); 8.83% (8 μM); 7.65% (8 μM) DOUBTS OF THE COPYIST ABOUT THIS PICTURE: The quadrant percentages carry no printed measure. For each plot they are listed in the order upper left, upper right, lower left, lower right. / All quadrant percentages are printed very small and blurred, so 3, 5, 6, 8 and 9 cannot be told apart with certainty in any of them.

SMILES | Morphological observation of cell apoptosis (Hoechst 33342/PI) (A549 cells [1]) | IC50 [2] [µM] | IC50 [3] [µM] | Percentage of Cell Apoptosis (%) Late Apoptosis and Necrosis (A549 cells [4]; A549, 2 μM) [%] | Percentage of Cell Apoptosis (%) Normal Living Cell (A549 cells [4]; A549, 2 μM) [%] | Percentage of Cell Apoptosis (%) Early Apoptosis (A549 cells [4]; A549, 2 μM) [%] | Percentage of Cell Apoptosis (%) Late Apoptosis and Necrosis (A549 cells [4]; A549, 4 μM) [%] | Percentage of Cell Apoptosis (%) Normal Living Cell (A549 cells [4]; A549, 4 μM) [%] | Percentage of Cell Apoptosis (%) Early Apoptosis (A549 cells [4]; A549, 4 μM) [%] | Percentage of Cell Apoptosis (%) Late Apoptosis and Necrosis (A549 cells [4]; A549, 8 μM) [%] | Percentage of Cell Apoptosis (%) Normal Living Cell (A549 cells [4]; A549, 8 μM) [%] | Percentage of Cell Apoptosis (%) Early Apoptosis (A549 cells [4]; A549, 8 μM) [%]
COC(=O)c1cc2c3ccccc3n(Cc3ccccc3C)c2cn1 [Compound 4B] | could only induce cell apoptosis in a dose-dependent manner | 31.3 ± 2.33 | 42.3 ± 2.13 | 20.89 | 75.93 | 3.18 | 36.06 | 48.59 | 15.35 | 69.65 | 21.95 | 8.40
COC(=O)c1cc2c3ccccc3n(Cc3ccccc3F)c2cn1 [Compound 4D] | could induce cell apoptosis and further cell necrosis | 26.4 ± 1.33 | 17.8 ± 0.66 | 18.78 | 73.94 | 7.27 | 45.26 | 47.93 | 6.80 | 77.09 | 17.63 | 5.28
Cc1ccccc1Cn1c2ccccc2c2cc(C(=O)OCCCCCOC(=O)c3cc4c5ccccc5n(Cc5ccccc5C)c4cn3)ncc21 [Compound 6i] | could induce cell apoptosis and further cell necrosis | 9.88 ± 0.04 | 7.18 ± 0.01 | 21.03 | 72.12 | 6.85 | 42.41 | 44.94 | 12.65 | 83.24 | 12.52 | 4.24
O=C(OCCCCCOC(=O)c1cc2c3ccccc3n(Cc3ccccc3F)c2cn1)c1cc2c3ccccc3n(Cc3ccccc3F)c2cn1 [Compound 6u] | could induce cell apoptosis and further cell necrosis | 14.6 ± 0.36 | 5.86 ± 0.08 | 21.81 | 66.05 | 12.14 | 60.93 | 32.53 | 6.54 | 83.52 | 8.83 | 7.65
